Results from US20180272034A1, “USE OF CSA COMPOUNDS TO PREVENT MICROBIAL BUILD-UP OR FOULING OF MEDICAL IMPLANTS” (BRIGHAM YOUNG UNIVERSITY, priority 2017, published 2018).
Values after ≈ are worked out from the molar mass of the structure shown.

Legend:
Pseudomonas aeruginosa = conditions: mixed-species biofilms grown 22 hours, 20 hours of treatment
Method: (§1) Several CSA compounds were tested against Pseudomonas aeruginosa and Staphylococcus aureus mixed-species biofilms grown for an initial 22 hours and subjected to 20 hours of treatment.

Staphylococcus aureus = conditions: mixed-species biofilms grown 22 hours, 20 hours of treatment
Method: as §1

| MIC P. aeruginosa (Pseudomonas aeruginosa) | MIC S. aureus (Staphylococcus aureus) | Structure (SMILES) | MBC P. aeruginosa (Pseudomonas aeruginosa) | MBC S. aureus (Staphylococcus aureus) |
| --- | --- | --- | --- | --- |
| 3.125 µg/mL | 3.125 µg/mL | CCCCCCOC(=O)CCC(C)C1CCC2C3C(OC(=O)CCN)CC4CC(OC(=O)CCN)CCC4(C)C3CC(OC(=O)CCN)C12C.Cl.Cl.Cl (centres unmarked) [CSA-142] | 3.125 µg/mL | 3.125 µg/mL |
| 50 µg/mL | 6.25 µg/mL | C[C@H](CCCNCCCNCCCN)[C@H]1CC[C@H]2[C@@H]3[C@H](OCCCN)C[C@@H]4C[C@H](OCCCN)CC[C@]4(C)[C@H]3C[C@H](OCCCN)[C@]12C.Cl.Cl.Cl.Cl.Cl.Cl [CSA-54] | 100 µg/mL | 25 µg/mL |
| 25 µg/mL | 1.56 µg/mL | CC(CCCOCCCN)C1CCC2C3C(OCCCN)CC4CC(OCCCN)CCC4(C)C3CC(OCCCN)C12C.Cl.Cl.Cl.Cl (centres unmarked) [CSA-25] | 50 µg/mL | 3.25 µg/mL |
| 6.25 µg/mL (≈ 8.86 µM) | 1.56 µg/mL (≈ 2.21 µM) | CCCCCN(CCCCC)CCC[C@@H](C)[C@H]1CC[C@H]2[C@@H]3[C@H](OCCCN)C[C@@H]4C[C@H](OCCCN)CC[C@]4(C)[C@H]3C[C@H](OCCCN)[C@]12C [CSA-90] | 6.25 µg/mL (≈ 8.86 µM) | 1.56 µg/mL (≈ 2.21 µM) |
| 3.125 µg/mL (≈ 4.62 µM) | 0.78 µg/mL (≈ 1.15 µM) | CCCCCCCCNCCC[C@@H](C)[C@H]1CC[C@H]2[C@@H]3[C@H](OCCCN)C[C@@H]4C[C@H](OCCCN)CC[C@]4(C)[C@H]3C[C@H](OCCCN)[C@]12C [CSA-13] | 6.25 µg/mL (≈ 9.23 µM) | 0.78 µg/mL (≈ 1.15 µM) |
| 3.125 µg/mL (≈ 4.26 µM) | 1.56 µg/mL (≈ 2.13 µM) | CCCCCCCCOC(=O)CC[C@@H](C)[C@H]1CC[C@H]2[C@@H]3[C@H](OC(=O)CCN)C[C@@H]4C[C@H](OC(=O)CCN)CC[C@]4(C)[C@H]3C[C@H](OC(=O)CCN)[C@]12C [CSA-44] | 6.25 µg/mL (≈ 8.51 µM) | 3.25 µg/mL (≈ 4.43 µM) |
| 12.5 µg/mL | 3.125 µg/mL | CCCCCCCCCCOC(=O)CCC(C)C1CCC2C3C(OC(=O)CCN)CC4CC(OC(=O)CCN)CCC4(C)C3CC(OC(=O)CCN)C12C.Cl.Cl.Cl (centres unmarked) [CSA-144] | 50 µg/mL | 3.125 µg/mL |
| >200 µg/mL | 50 µg/mL | CC(O)C1CCC2C3C(OCCCN)CC4CC(OCCCN)CCC4(C)C3CC(OCCCN)C12C.Cl.Cl.Cl (mixture of isomers) [CSA-11] | >200 µg/mL | 50 µg/mL |
| 3.125 µg/mL | 0.78 µg/mL | CCCCCCCCNC(=O)CCC(C)C1CCC2C3C(OCCCN)CC4CC(OCCCN)CCC4(C)C3CC(OCCCN)C12C.Cl.Cl.Cl (centres unmarked) [CSA-192] | 6.25 µg/mL | 1.56 µg/mL |
| 12.5 µg/mL | 3.125 µg/mL | CCCCCCCCCOC(=O)CCC(C)C1CCC2C3C(OC(=O)CCN)CC4CC(OC(=O)CCN)CCC4(C)C3CC(OC(=O)CCN)C12C.Cl.Cl.Cl (centres unmarked) [CSA-145] | 50 µg/mL | 3.125 µg/mL |

| Structure (SMILES) | MIC P. aeruginosa (Pseudomonas aeruginosa) | MIC S. aureus (Staphylococcus aureus) | MBC P. aeruginosa (Pseudomonas aeruginosa) | MBC S. aureus (Staphylococcus aureus) |
| --- | --- | --- | --- | --- |
| CC[C@H](C)[C@H](NC(=O)[C@H](CCCCN)NC(=O)[C@H](CCC(=O)O)NC(=O)[C@H](CCCCN)NC(=O)[C@H](CO)NC(=O)[C@H](CCCCN)NC(=O)[C@H](CCCNC(=N)N)NC(=O)[C@H](Cc1ccccc1)NC(=O)[C@H](Cc1ccccc1)NC(=O)[C@H](CC(=O)O)NC(=O)CNC(=O)[C@H](CC(C)C)NC(=O)[C@@H](N)CC(C)C)C(=O)NCC(=O)N[C@@H](CCCCN)C(=O)N[C@@H](CCC(=O)O)C(=O)N[C@@H](Cc1ccccc1)C(=O)N[C@@H](CCCCN)C(=O)N[C@@H](CCCNC(=N)N)C(=O)N[C@H](C(=O)N[C@H](C(=O)N[C@@H](CCC(N)=O)C(=O)N[C@@H](CCCNC(=N)N)C(=O)N[C@H](C(=O)N[C@@H](CCCCN)C(=O)N[C@@H](CC(=O)O)C(=O)N[C@@H](Cc1ccccc1)C(=O)N[C@@H](CC(C)C)C(=O)N[C@@H](CCCNC(=N)N)C(=O)N[C@@H](CC(N)=O)C(=O)N[C@@H](CC(C)C)C(=O)N[C@H](C(=O)N1CCC[C@H]1C(=O)N[C@@H](CCCNC(=N)N)C(=O)N[C@H](C(=O)N[C@@H](CCC(=O)O)C(=O)N[C@@H](CO)C(=O)O)[C@@H](C)O)C(C)C)[C@@H](C)CC)C(C)C)[C@@H](C)CC [LL-37, reference compound] | >200 µg/mL | >200 µg/mL | >200 µg/mL | >200 µg/mL |
